Laboratory results reported in patent US20150037375A1, “DOPING AGENTS AND POLYMERIC COMPOSITIONS THEREOF FOR CONTROLLED DRUG DELIVERY” (TRUSTEES OF BOSTON UNIVERSITY ET AL, priority 2011, published 2015).
Values after ≈ are worked out from the molar mass of the structure shown.

What was measured:
[1] = system: HT-29 colorectal cancer cells; assay: In vitro cytotoxicity (MTS/MTT) of drug-loaded meshes, HT-29 cells
Description: (§1) The meshes contained either 0.01, 0.1, or 1.0 w/w % drug (SN38 or CPT-11). The camptothecin release from these meshes was tested using a cell viability assay following 24 hour treatments with camptothecin-loaded or unloaded meshes. […] Individual camptothecin-loaded and unloaded meshes were placed in permeable filter supports (Polyester membrane insert, 3.0 μm pore size; Corning Incorporated, Corning, N.Y.) and maintained in SPM. Medium was changed periodically to ensure continued drug release. […] At designated time points, subconfluent cells were harvested and seeded on 12-well plates at 30,000 cells/well in SPM. After 24 hours, filter supports and meshes were transferred from holding wells to the wells containing tumor cells in 2 mL of fresh SPM. After 24 hours of co-incubation with tumor cells, films were returned to holding wells in fresh SPM until the subsequent time point. Five days after treatment, tumor cell viability was measured using a colorimetric MTT (3-(4,5-dimethyl-2-thiazolyl)-2,5-diphenyltetrazolium bromide) cell proliferation assay (Sigma, St. Louis, Mo.). Cell viability was calculated as the percentage of the positive control absorbance for each cell line at each time point.

[2] = Lactone form of SN-38 released from meshes; settings: control, bolus of SN-38 added to pH 6.4 PBS for an hour
Description: An additional release study was performed to determine if the active form of SN-38 was preserved within electrospun meshes.

[3] = system: Lewis Lung Carcinoma (LLC) cells; assay: Cell viability (MTT) after 24 hour treatments with drug-loaded meshes, LLC cells
Description: as §1

With `CCc1c2c(nc3ccc(O)cc13)-c1cc3c(c(=O)n1C2)COC(=O)[C@]3(O)CC` [SN-38, 7-ethyl-10-hydroxycamptothecin] the IC50 [1] was 3.4 ng/mL (≈ 8.66 nM), the “SN-38 remaining in the active lactone form” value [2] was 73% and the IC-50 [3] was “≈ 8 ng/mL”.
